Experiments:
[1] = DRUGMATRIX: Calcium Channel Type L, Benzothiazepine radioligand binding (ligand: [3H] Diltiazem); format: cell membranes, Rattus norvegicus, Wistar, Brain, Membrane; details: Not Active = under 50% inhibition at 10 µM
[2] = molecular target: T1, Caspase-1 (Homo sapiens, UniProt P29466); parameters: species or system Escherichia coli;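 also: Caspase-1 enzyme inhibition assay with a peptide substrate; in other assays of this panel Not Active means under 50% inhibition at 10 µM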
T1 sequence (P29466 whole entry): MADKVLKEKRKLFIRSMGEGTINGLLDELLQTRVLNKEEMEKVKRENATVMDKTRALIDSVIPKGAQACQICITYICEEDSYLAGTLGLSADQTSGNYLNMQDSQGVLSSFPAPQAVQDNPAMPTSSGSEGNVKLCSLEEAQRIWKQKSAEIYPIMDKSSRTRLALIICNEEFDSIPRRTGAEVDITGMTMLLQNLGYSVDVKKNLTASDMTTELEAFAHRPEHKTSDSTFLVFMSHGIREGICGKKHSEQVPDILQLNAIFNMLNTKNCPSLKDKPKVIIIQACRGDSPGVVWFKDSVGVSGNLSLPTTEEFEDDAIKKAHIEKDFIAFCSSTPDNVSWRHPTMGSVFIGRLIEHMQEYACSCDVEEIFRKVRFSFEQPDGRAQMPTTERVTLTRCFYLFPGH

[3] = molecular target: Platelet-activating factor receptor (Homo sapiens, UniProt P25105); format: tissue-based; also: in other assays of this panel Not Active means under 50% inhibition at 10 µM
Sequence of Platelet-activating factor receptor (P25105 whole entry): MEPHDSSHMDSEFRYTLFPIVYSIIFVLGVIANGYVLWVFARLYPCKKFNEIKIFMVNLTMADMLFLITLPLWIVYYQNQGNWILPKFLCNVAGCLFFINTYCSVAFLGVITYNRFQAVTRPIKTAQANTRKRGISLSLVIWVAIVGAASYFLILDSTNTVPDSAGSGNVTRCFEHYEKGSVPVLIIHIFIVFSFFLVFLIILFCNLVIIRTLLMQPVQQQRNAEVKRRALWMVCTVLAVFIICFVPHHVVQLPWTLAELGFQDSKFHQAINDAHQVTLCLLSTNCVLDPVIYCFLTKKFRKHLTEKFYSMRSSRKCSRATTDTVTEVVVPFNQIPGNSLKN

[4] = molecular target: T2, Amine oxidase [flavin-containing] A (Homo sapiens, UniProt P21397); assay: DRUGMATRIX: Monoamine Oxidase MAO-A enzyme inhibition (substrate: Kynuramine); parameters: species or system BTI-TN-5B1-4; details: bti-tn-5b1-4; Not Active = under 50% inhibition at 10 µM
T2 sequence (P21397 whole entry): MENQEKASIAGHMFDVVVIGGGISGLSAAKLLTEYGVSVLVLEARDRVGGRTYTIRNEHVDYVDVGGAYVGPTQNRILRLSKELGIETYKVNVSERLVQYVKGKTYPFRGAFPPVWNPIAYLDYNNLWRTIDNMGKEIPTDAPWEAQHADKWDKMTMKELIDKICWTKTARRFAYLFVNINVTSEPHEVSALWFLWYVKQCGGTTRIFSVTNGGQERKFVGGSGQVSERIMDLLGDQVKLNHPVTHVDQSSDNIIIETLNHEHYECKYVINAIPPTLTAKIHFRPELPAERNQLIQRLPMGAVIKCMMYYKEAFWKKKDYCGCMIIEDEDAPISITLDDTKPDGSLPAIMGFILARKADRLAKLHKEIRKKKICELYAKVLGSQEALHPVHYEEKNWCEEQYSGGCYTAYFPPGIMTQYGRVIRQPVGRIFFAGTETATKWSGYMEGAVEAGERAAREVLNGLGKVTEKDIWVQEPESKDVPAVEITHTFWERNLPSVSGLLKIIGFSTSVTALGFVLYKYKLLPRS

[5] = molecular target: cGMP-specific 3',5'-cyclic phosphodiesterase (Homo sapiens, UniProt O76074); assay: DRUGMATRIX: Phosphodiesterase PDE5 enzyme inhibition (substrate: [3H]cGMP + cGMP); format: tissue-based; details: platelet; Not Active = under 50% inhibition at 10 µM
[6] = molecular target: Protein phosphatase 3 catalytic subunit alpha (Homo sapiens, UniProt Q08209); parameters: species or system Escherichia coli;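 also: inhibition of calcineurin (PP2B) enzyme activity, measured with DiFMUP as the substrate; in other assays of this panel Not Active means under 50% inhibition at 10 µM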
[7] = molecular target: Aldo-keto reductase family 1 member B1 (Rattus norvegicus, UniProt P07943); assay: biochemical; format: tissue-based, Lens of camera-type eye;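 also: inhibition of aldose reductase enzyme activity, measured with DL-glyceraldehyde as the substrate; in other assays of this panel Not Active means under 50% inhibition at 10 µM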
[8] = molecular target: T3, C-X-C chemokine receptor type 2 (Homo sapiens, UniProt P25025); format: cell membranes, Membrane; details: cho-k1; also: in other assays of this panel Not Active means under 50% inhibition at 10 µM
T3 sequence (P25025 whole entry): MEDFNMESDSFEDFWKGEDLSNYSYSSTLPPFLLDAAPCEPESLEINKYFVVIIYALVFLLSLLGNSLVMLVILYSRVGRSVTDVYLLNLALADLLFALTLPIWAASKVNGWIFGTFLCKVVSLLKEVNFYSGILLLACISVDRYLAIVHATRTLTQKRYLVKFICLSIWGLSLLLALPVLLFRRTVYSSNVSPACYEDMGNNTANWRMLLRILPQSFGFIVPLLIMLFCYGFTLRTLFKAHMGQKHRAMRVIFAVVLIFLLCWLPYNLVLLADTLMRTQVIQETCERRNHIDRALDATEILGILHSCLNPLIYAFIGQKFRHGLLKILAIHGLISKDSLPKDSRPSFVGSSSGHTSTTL

Compound | IC50 [1] | Ki [1] | IC50 [2] | IC50 [3] | IC50 [4] | IC50 [5] | IC50 [6] | IC50 [7] | IC50 [8] | IC50 ([1]; read-out: IC50) | Ki ([1]; read-out: Ki) | Ki [2] | Ki [3] | Ki [4] | Ki [5] | Ki [6] | Ki [7] | Ki [8]
NC1=NC(=O)C(c2ccccc2)O1 (configuration not stated) [PEMOLINE] | Not Active | Not Active | Not Active | Not Active | Not Active | Not Active | Not Active | Not Active | Not Active |  |  |  |  |  |  |  |  | 
Nc1nc2c(ncn2CCC(CO)CO)c(=O)[nH]1 [PENCICLOVIR] | Not Active | Not Active | Not Active | Not Active | Not Active | Not Active | Not Active | Not Active | Not Active |  |  |  |  |  |  |  |  | 
C=C(C)C1(O)OC(=O)C=C1OC (configuration not stated) [PENICILLIC ACID] | Not Active | Not Active | Not Active | Not Active | Not Active | Not Active | Not Active | Not Active | Not Active |  |  |  |  |  |  |  |  | 
CC1(C)S[C@@H]2[C@H](NC(=O)Cc3ccccc3)C(=O)N2[C@H]1C(=O)O [PENICILLIN G] | Not Active | Not Active | Not Active | Not Active | Not Active | Not Active | Not Active | Not Active | Not Active |  |  |  |  |  |  |  |  | 
CCCN1C[C@H](CSC)C[C@@H]2c3cccc4[nH]cc(c34)C[C@H]21 [PERGOLIDE] |  |  | Not Active | Not Active | Not Active | Not Active | Not Active | Not Active | Not Active | 3300 nM | 2930 nM |  |  |  |  |  |  | 
C1CCC(C(CC2CCCCN2)C2CCCCC2)CC1 (configuration not stated) [PERHEXILINE] |  |  | Not Active | Not Active | Not Active | Not Active | Not Active | Not Active | Not Active | 1060 nM | 939 nM |  |  |  |  |  |  | 
CCOc1ccc(NC(C)=O)cc1 [PHENACETIN] | Not Active | Not Active | Not Active | Not Active | Not Active | Not Active | Not Active | Not Active | Not Active |  |  |  |  |  |  |  |  | 
Cc1ccc(N(CC2=NCCN2)c2cccc(O)c2)cc1 [PHENTOLAMINE] | Not Active | Not Active | Not Active | Not Active | Not Active | Not Active | Not Active | Not Active | Not Active |  |  |  |  |  |  |  |  | 
CNNCc1ccc(C(=O)NC(C)C)cc1 [PROCARBAZINE] | Not Active | Not Active | Not Active | Not Active | Not Active | Not Active | Not Active | Not Active | Not Active |  |  |  |  |  |  |  |  | 
CN(C)CCCN1c2ccccc2Sc2ccccc21 [PROMAZINE] |  |  | Not Active | Not Active | Not Active | Not Active | Not Active | Not Active | Not Active | 3220 nM | 2860 nM |  |  |  |  |  |  | 
CC(O)CO (configuration not stated) [PROPYLENE GLYCOL] | Not Active | Not Active | Not Active | Not Active | Not Active | Not Active | Not Active | Not Active | Not Active |  |  |  |  |  |  |  |  | 
CADMIUM ACETATE | Not Active | Not Active | Not Active | Not Active | Not Active | Not Active | Not Active | Not Active | Not Active |  |  | Not Active | Not Active | Not Active | Not Active | Not Active | Not Active | Not Active
LEAD (II) ACETATE | Not Active | Not Active | Not Active | Not Active | Not Active | Not Active | Not Active | Not Active | Not Active |  |  | Not Active | Not Active | Not Active | Not Active | Not Active | Not Active | Not Active
LIPOPOLYSACCHARIDE E. COLI O55:B5 | Not Active | Not Active | Not Active | Not Active | Not Active | Not Active | Not Active | Not Active | Not Active |  |  | Not Active | Not Active | Not Active | Not Active | Not Active | Not Active | Not Active

— ChEMBL document CHEMBL1909046, “DrugMatrix in vitro pharmacology data”
